This assay has as its target T1, Protein deacetylase HDAC6 (Homo sapiens) (UniProt Q9UBN7).
T1 sequence (whole entry): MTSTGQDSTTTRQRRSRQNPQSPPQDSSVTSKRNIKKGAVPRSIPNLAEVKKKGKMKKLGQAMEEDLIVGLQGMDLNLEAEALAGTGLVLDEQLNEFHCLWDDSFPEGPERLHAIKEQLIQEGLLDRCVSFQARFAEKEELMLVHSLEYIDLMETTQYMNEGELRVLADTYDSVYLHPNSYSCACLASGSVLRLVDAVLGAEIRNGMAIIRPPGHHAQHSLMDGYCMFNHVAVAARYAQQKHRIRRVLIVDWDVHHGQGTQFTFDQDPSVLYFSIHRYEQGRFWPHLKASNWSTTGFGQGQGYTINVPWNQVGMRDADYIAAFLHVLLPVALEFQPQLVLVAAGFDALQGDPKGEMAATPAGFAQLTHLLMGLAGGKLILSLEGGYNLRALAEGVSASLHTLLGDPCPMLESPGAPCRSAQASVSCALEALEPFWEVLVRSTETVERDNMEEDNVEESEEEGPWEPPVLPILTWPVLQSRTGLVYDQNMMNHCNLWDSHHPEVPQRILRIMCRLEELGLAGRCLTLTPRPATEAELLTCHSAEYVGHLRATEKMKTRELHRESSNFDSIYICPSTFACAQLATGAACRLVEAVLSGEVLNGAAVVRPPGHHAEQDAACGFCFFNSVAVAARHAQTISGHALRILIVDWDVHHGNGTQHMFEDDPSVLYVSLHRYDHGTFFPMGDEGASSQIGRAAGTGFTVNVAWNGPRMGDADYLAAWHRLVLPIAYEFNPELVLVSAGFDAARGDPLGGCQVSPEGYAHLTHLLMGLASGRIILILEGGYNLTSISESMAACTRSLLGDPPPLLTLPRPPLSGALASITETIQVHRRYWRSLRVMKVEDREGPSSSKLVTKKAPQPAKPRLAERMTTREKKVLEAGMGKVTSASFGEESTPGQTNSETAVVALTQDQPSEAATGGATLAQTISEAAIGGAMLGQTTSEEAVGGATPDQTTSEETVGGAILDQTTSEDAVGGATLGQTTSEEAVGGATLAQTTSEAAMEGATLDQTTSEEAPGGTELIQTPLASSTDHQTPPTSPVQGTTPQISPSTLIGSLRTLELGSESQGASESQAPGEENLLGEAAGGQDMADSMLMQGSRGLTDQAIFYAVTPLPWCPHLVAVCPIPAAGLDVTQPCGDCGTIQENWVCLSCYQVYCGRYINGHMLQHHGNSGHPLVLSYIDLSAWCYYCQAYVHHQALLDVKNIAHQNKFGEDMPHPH
The assay can be described thus: Inhibition of HDAC6 in human MDA-MB-231 cells assessed as increase in HSP90 acetylation at 2.5 to 10 uM measured after 24 hrs by Western blot analysis. It is filed as cell-based. Particulars: dose 2.5-10 µM.

The source made the active and inactive calls. The rule behind the calls is not given here.

In the case of `COc1cc(OC)c2c(N3CCS(=O)(=O)CC3)nc(-c3cc(C)c(OCCCCCC(=O)NO)c(C)c3)nc2c1`, the inhibition result is “Active”.

Values taken from ChEMBL document CHEMBL4765420, “Design, synthesis and biological evaluation of novel HDAC inhibitors with improved pharmacokinetic profile in breast cancer” (Eur J Med Chem, 2020).
